Reference: ChEMBL document CHEMBL1154103, “Bioactive conformation analysis of cyclic imides as protoporphyrinogen oxidase inhibitor by combining DFT calculations, QSAR and molecular dynamic simulations” (Bioorg Med Chem, 2009)

Target: T1, Protoporphyrinogen oxidase (Bacillus subtilis (strain 168), UniProt P32397)
T1 sequence (P32397 whole entry): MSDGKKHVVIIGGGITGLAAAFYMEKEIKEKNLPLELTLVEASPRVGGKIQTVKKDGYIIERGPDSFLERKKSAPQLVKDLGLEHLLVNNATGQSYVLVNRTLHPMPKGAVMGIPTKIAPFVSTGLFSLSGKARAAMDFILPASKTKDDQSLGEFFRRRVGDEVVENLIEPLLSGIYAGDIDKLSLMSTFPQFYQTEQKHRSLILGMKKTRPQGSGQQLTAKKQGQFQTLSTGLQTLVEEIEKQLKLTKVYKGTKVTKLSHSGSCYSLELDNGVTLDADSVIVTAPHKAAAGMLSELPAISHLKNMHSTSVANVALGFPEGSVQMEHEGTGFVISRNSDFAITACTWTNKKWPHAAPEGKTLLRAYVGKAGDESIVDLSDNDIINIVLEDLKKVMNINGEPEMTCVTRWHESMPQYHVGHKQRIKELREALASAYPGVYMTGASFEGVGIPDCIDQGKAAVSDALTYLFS
Test: Inhibition of Bacillus subtilis Protoporphyrinogen oxidase by capillary electrophoresis

Row | Ki [nM] | SMILES
1 | 3310 | C#CCN1C(=O)COc2cc(F)c(N3C(=O)c4ccccc4C3=O)cc21
2 | 2820 | C#CCN1C(=O)COc2cc(F)c(N3C(=O)c4ccc(C)cc4C3=O)cc21
3 | 26.9 | O=C(NC(=O)c1ccc(Cl)cc1Cl)Nc1cc(N2C(=O)C3=C(CCCC3)C2=O)c(F)cc1Cl
4 | 28.2 | O=C(Nc1ccc(Cl)cc1)Nc1cc(N2C(=O)C3=C(CCCC3)C2=O)c(F)cc1Cl
5 | 33.9 | O=C(NC(=O)c1cccc(OC(F)(F)F)c1)Nc1cc(N2C(=O)C3=C(CCCC3)C2=O)c(F)cc1Cl
6 | 6170 | O=C(NC(=O)c1ccccc1)Nc1cc(N2C(=O)C3=C(CCCC3)C2=O)ccc1Cl
7 | 8.32 | O=C(NC(=O)c1c(F)cccc1Cl)Nc1cc(N2C(=O)C3=C(CCCC3)C2=O)c(F)cc1Cl
8 | 288 | CCCN(CCC)C(=O)Nc1cc(N2C(=O)C3=C(CCCC3)C2=O)ccc1Cl
9 | 49 | COC(=O)C(C)N1C(=O)C(C)Oc2cc(F)c(N3C(=O)C4=C(CCCC4)C3=O)cc21 (stereo not given)
10 | 229 | CC(C)N(C(=O)Nc1cc(N2C(=O)C3=C(CCCC3)C2=O)c(F)cc1Cl)C(C)C
11 | 89.1 | O=C(NC(=O)c1ccccc1)Nc1cc(N2C(=O)C3=C(CCCC3)C2=O)c(F)cc1Cl
12 | 12.9 | O=C(NC(=O)c1c(Cl)cccc1Cl)Nc1cc(N2C(=O)C3=C(CCCC3)C2=O)c(F)cc1Cl
13 | 1020 | N#CCN1C(=O)COc2cc(F)c(N3C(=O)c4ccccc4C3=O)cc21
14 | 871 | CC(C)(CCl)C(=O)Nc1cc(N2C(=O)C3=C(CCCC3)C2=O)c(F)cc1Cl
15 | 372 | CNC(=O)Nc1cc(N2C(=O)C3=C(CCCC3)C2=O)c(F)cc1Cl
16 | 110 | CCOC(=O)C(C)N1C(=O)C(C)Oc2cc(F)c(N3C(=O)C4=C(CCCC4)C3=O)cc21 (stereo not given)
17 | 91.2 | CCOC(=O)C(c1ccccc1)N1C(=O)C(C)Oc2cc(F)c(N3C(=O)C4=C(CCCC4)C3=O)cc21 (stereo not given)
18 | 60.3 | CCOC(=O)CN1C(=O)C(C)Oc2cc(F)c(N3C(=O)C4=C(CCCC4)C3=O)cc21 (stereo not given)

Row | SMILES | Ki [nM]
19 | O=C(Nc1cccc(C(F)(F)F)c1)Nc1cc(N2C(=O)C3=C(CCCC3)C2=O)c(F)cc1Cl | 25.1
20 | CCOC(=O)C(C)N1C(=O)COc2cc(F)c(N3C(=O)C4=C(CCCC4)C3=O)cc21 (stereo not given) | 120
21 | CCOC(=O)C(CC)N1C(=O)COc2cc(F)c(N3C(=O)C4=C(CCCC4)C3=O)cc21 (stereo not given) | 44.7
22 | C#CCN1C(=O)C(C)Oc2cc(F)c(N3C(=O)c4ccc(C)cc4C3=O)cc21 (stereo not given) | 4790
23 | COC(=O)CN1C(=O)C(C)Oc2cc(F)c(N3C(=O)C4=C(CCCC4)C3=O)cc21 (stereo not given) | 39.8
24 | C#CCN1C(=O)C(C)Oc2cc(F)c(N3C(=O)c4cccc(F)c4C3=O)cc21 (stereo not given) | 5010
25 | CCC(C(=O)OC)N1C(=O)COc2cc(F)c(N3C(=O)C4=C(CCCC4)C3=O)cc21 (stereo not given) | 8.13
